Experimental findings from US9765075B2, “Substituted bridged urea analogs as sirtuin modulators” (GLAXOSMITHKLINE LLC, priority 2013, dated 2017) are described below.

Bounds are passed on as bounds.

The test addresses T1, SIRT1 (Homo sapiens, UniProt Q96EB6).
T1 sequence (Q96EB6 1-747): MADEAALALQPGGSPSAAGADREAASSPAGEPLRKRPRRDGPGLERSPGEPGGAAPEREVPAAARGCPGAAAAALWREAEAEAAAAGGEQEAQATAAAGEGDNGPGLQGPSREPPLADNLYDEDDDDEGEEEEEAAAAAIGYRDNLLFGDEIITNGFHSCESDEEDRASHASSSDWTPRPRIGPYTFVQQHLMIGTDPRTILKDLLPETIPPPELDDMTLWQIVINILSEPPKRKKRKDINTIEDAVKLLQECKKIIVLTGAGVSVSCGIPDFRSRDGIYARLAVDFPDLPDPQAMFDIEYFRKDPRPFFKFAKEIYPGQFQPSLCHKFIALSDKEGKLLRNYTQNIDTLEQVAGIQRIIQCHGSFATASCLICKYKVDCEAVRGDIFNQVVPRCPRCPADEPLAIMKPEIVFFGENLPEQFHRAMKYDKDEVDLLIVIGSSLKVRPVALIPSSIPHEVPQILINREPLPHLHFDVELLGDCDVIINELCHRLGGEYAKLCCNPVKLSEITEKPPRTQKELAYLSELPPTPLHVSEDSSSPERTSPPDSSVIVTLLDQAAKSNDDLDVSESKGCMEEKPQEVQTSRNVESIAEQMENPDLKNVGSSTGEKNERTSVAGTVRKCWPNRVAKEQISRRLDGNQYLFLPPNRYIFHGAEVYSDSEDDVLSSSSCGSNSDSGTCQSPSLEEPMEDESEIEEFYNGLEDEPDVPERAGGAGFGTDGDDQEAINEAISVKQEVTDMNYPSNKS
Briefly: Trp mass spectrometry assay (SIRT1 activation). In kind it is biochemical. As to conditions: Trp peptide substrate; for Tryp AVG EC1.5 (μM): concentration of test compound that results in 150% activation of SIRT1; for Emax: percent maximum fold activation of SIRT1, read-out: Tryp % Fold Act. Put shortly: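 Activation is expressed as EC1.5, the concentration raising activity 50% above DMSO control, and as maximum percent of control. Mass-spec readout was OAADPR or deacetylated Trp peptide after a formic-acid-quenched 25-min, 25 °C reaction: 10 nM bacterially expressed His-SIRT1, 0.5 μM acetyl-p53-derived peptide, 120 μM NAD+, pH 7.5 HEPES with […].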

Turning to `O=C(Nc1ccccn1)N1c2nc(-c3cccc(N4CCC(C(F)(F)F)C4)c3)ccc2N2CC[C@H]1C2` (some centres unmarked) [Example 318], the “Tryp AVG EC1.5 (μM)” value is reported as “B (EC1.5 1-25 μM)” and the Emax was not below 150%.

For the compound `O=C(Nc1cnccn1)N1c2nc(-c3cccc(N4CCC(C(F)(F)F)C4)c3)ccc2N2CC[C@H]1C2` (some centres unmarked) [Example 319], the “Tryp AVG EC1.5 (μM)” value is on record as “B (EC1.5 1-25 μM)” and the Emax was not below 150%.

For the compound `COc1cc(NC(=O)N2c3nc(-c4cccc(N5CCC(C(F)(F)F)C5)c4)ccc3N3CC[C@H]2C3)ncn1` (some centres unmarked) [Example 320], the “Tryp AVG EC1.5 (μM)” value is given as “B (EC1.5 1-25 μM)” and the Emax was not below 150%.

Take `O=C(Nc1ccc(F)cn1)N1c2nc(-c3cccc(N4CCC(C(F)(F)F)C4)c3)ccc2N2CC[C@H]1C2` (some centres unmarked) [Example 321]: the “Tryp AVG EC1.5 (μM)” value is “B (EC1.5 1-25 μM)” and the Emax was not below 150%.

Consider `O=C(Nc1cncc(F)c1)N1c2nc(-c3cccc(N4CCC(C(F)(F)F)C4)c3)ccc2N2CC[C@H]1C2` (some centres unmarked) [Example 323], for which the “Tryp AVG EC1.5 (μM)” value was “B (EC1.5 1-25 μM)” and the Emax was not below 150%.

Turning to `O=C(Nc1ccccn1)N1c2nc(-c3cc(Cl)cc(Cl)c3)ccc2N2CC[C@H]1C2` [Example 324], the “Tryp AVG EC1.5 (μM)” value was “A (EC1.5<1 μM)” and the Emax is not below 150%.

Turning to `Cc1cncc(-c2ccc3c(n2)N(C(=O)Nc2ccccn2)[C@H]2CCN3C2)c1` [Example 325], the “Tryp AVG EC1.5 (μM)” value is reported as “A (EC1.5<1 μM)” and the Emax is not below 150%.

In the case of `CS(=O)(=O)c1ccc(-c2ccc3c(n2)N(C(=O)Nc2ccccn2)[C@H]2CCN3C2)cc1` [Example 326], the “Tryp AVG EC1.5 (μM)” value is listed as “B (EC1.5 1-25 μM)” and the Emax is not below 150%.

Consider `Cc1noc(C)c1-c1ccc2c(n1)N(C(=O)Nc1ccccn1)[C@H]1CCN2C1` [Example 327], for which the “Tryp AVG EC1.5 (μM)” value is reported as “C (EC1.5>25 μM)” and the Emax is not below 150%.

For `CS(=O)(=O)c1cncc(-c2ccc3c(n2)N(C(=O)Nc2ccccn2)[C@H]2CCN3C2)c1` [Example 328], the “Tryp AVG EC1.5 (μM)” value is recorded as “B (EC1.5 1-25 μM)” and the Emax is not below 150%.

As to `O=C(Nc1ccccn1)N1c2nc(-c3ccc(F)c(Cl)c3)ccc2N2CC[C@H]1C2` [Example 329], the “Tryp AVG EC1.5 (μM)” value is on record as “A (EC1.5<1 μM)” and the Emax was not below 150%.

Take `CC(C)c1cccc(-c2ccc3c(n2)N(C(=O)Nc2ccccn2)[C@H]2CCN3C2)c1` [Example 330]: the “Tryp AVG EC1.5 (μM)” value is “A (EC1.5<1 μM)” and the Emax was not below 150%.

With `Cn1ccc(-c2ccc3c(n2)N(C(=O)Nc2ccccn2)[C@H]2CCN3C2)n1` [Example 331], the “Tryp AVG EC1.5 (μM)” value was “B (EC1.5 1-25 μM)” and the Emax was not below 150%.

On to `O=C(Nc1ccccn1)N1c2nc(-c3ccc(Cl)c(Cl)c3)ccc2N2CC[C@H]1C2` [Example 332], for which the “Tryp AVG EC1.5 (μM)” value is “A (EC1.5<1 μM)” and the Emax was not below 150%.

For `O=C(Nc1ccccn1)N1c2nc(-c3cc(F)cc(C(F)(F)F)c3)ccc2N2CC[C@H]1C2` [Example 333], the “Tryp AVG EC1.5 (μM)” value was “A (EC1.5<1 μM)” and the Emax was not below 150%.

For the compound `O=C(Nc1ccccn1)N1c2nc(-c3cccc(C(F)(F)F)c3F)ccc2N2CC[C@H]1C2` [Example 334], the “Tryp AVG EC1.5 (μM)” value is “B (EC1.5 1-25 μM)” and the Emax is not below 150%.

Regarding `O=C(Nc1cccc(C2(C(F)(F)F)N=N2)c1)N1c2nc(-c3cccc(C(F)(F)F)c3)ccc2N2CCC[C@H]1C2` [Example 335], the “Tryp AVG EC1.5 (μM)” value is listed as “A (EC1.5<1 μM)” and the Emax was not below 150%.

Consider `O=C(Nc1ccccn1)N1c2nc(-c3cccc(C(F)(F)F)n3)ccc2N2CC[C@H]1C2` [Example 336], for which the “Tryp AVG EC1.5 (μM)” value is given as “B (EC1.5 1-25 μM)” and the Emax is not below 150%.

Turning to `O=C(Nc1ccncn1)N1c2nc(-c3cccc(C(F)(F)F)n3)ccc2N2CC[C@H]1C2` [Example 337], the “Tryp AVG EC1.5 (μM)” value was “B (EC1.5 1-25 μM)” and the Emax is not below 150%.

Consider `O=C(Nc1cnccn1)N1c2nc(-c3cccc(C(F)(F)F)n3)ccc2N2CC[C@H]1C2` [Example 338], for which the “Tryp AVG EC1.5 (μM)” value is listed as “B (EC1.5 1-25 μM)” and the Emax is not below 150%.

Regarding `COc1cc(NC(=O)N2c3nc(-c4cccc(C(F)(F)F)n4)ccc3N3CC[C@H]2C3)ncn1` [Example 339], the “Tryp AVG EC1.5 (μM)” value is “B (EC1.5 1-25 μM)” and the Emax is not below 150%.

In the case of `O=C(Nc1ccc(F)cn1)N1c2nc(-c3cccc(C(F)(F)F)n3)ccc2N2CC[C@H]1C2` [Example 340], the “Tryp AVG EC1.5 (μM)” value is reported as “B (EC1.5 1-25 μM)” and the Emax is not below 150%.

As for `N#Cc1cc(-c2ccc3c(n2)N(C(=O)Nc2ccccn2)[C@H]2CCN3C2)ccc1F` [Example 341], the “Tryp AVG EC1.5 (μM)” value is reported as “A (EC1.5<1 μM)” and the Emax was not below 150%.

Regarding `COc1ccc(-c2ccc3c(n2)N(C(=O)Nc2ccccn2)[C@H]2CCN3C2)cn1` [Example 342], the “Tryp AVG EC1.5 (μM)” value was “B (EC1.5 1-25 μM)” and the Emax is not below 150%.

On to `CN(C)Cc1cccc(-c2ccc3c(n2)N(C(=O)Nc2ccccn2)[C@H]2CCN3C2)c1` [Example 343], for which the “Tryp AVG EC1.5 (μM)” value was “B (EC1.5 1-25 μM)” and the Emax was not below 150%.

On to `O=C(Nc1ccccn1)N1c2nc(-c3cc(F)cc(F)c3)ccc2N2CC[C@H]1C2` [Example 344], for which the “Tryp AVG EC1.5 (μM)” value is given as “A (EC1.5<1 μM)” and the Emax was not below 150%.

For the compound `CN(C)c1ccc(-c2ccc3c(n2)N(C(=O)Nc2ccccn2)[C@H]2CCN3C2)cn1` [Example 345], the “Tryp AVG EC1.5 (μM)” value was “B (EC1.5 1-25 μM)” and the Emax was not below 150%.

For `COc1cncc(-c2ccc3c(n2)N(C(=O)Nc2ccccn2)[C@H]2CCN3C2)c1` [Example 346], the “Tryp AVG EC1.5 (μM)” value was “B (EC1.5 1-25 μM)” and the Emax is not below 150%.

Regarding `O=C(Nc1ccccn1)N1c2nc(-c3ccc(-c4nnn[nH]4)cc3)ccc2N2CC[C@H]1C2` [Example 347], the “Tryp AVG EC1.5 (μM)” value is “A (EC1.5<1 μM)” and the Emax is not below 150%.

Consider `N#Cc1cccc(-c2ccc3c(n2)N(C(=O)Nc2ccccn2)[C@H]2CCCN3C2)c1` [Example 348], for which the “Tryp AVG EC1.5 (μM)” value is “A (EC1.5<1 μM)” and the Emax was not below 150%.

Regarding `Cn1cc(-c2ccc3c(n2)N(C(=O)Nc2ccccn2)[C@H]2CCN3C2)cn1` [Example 349], the “Tryp AVG EC1.5 (μM)” value was “B (EC1.5 1-25 μM)” and the Emax is not below 150%.

With `N#Cc1cccc(-c2ccc3c(n2)N(C(=O)Nc2cccnc2)[C@H]2CCCN3C2)c1` [Example 350], the “Tryp AVG EC1.5 (μM)” value is on record as “A (EC1.5<1 μM)” and the Emax was not below 150%.

Regarding `N#Cc1cccc(-c2ccc3c(n2)N(C(=O)Nc2cnccn2)[C@H]2CCCN3C2)c1` [Example 351], the “Tryp AVG EC1.5 (μM)” value is recorded as “A (EC1.5<1 μM)” and the Emax was not below 150%.

Regarding `N#Cc1cccc(-c2ccc3c(n2)N(C(=O)Nc2ccncn2)[C@H]2CCCN3C2)c1` [Example 352], the “Tryp AVG EC1.5 (μM)” value is listed as “A (EC1.5<1 μM)” and the Emax is not below 150%.

As to `N#Cc1cccc(-c2ccc3c(n2)N(C(=O)Nc2cncc(F)c2)[C@H]2CCCN3C2)c1` [Example 353], the “Tryp AVG EC1.5 (μM)” value was “A (EC1.5<1 μM)” and the Emax is not below 150%.

For `O=C(Nc1ccccn1)N1c2nc(-c3cccc(CC(O)CO)c3)ccc2N2CC[C@H]1C2` (some centres unmarked) [Example 354], the “Tryp AVG EC1.5 (μM)” value is on record as “A (EC1.5<1 μM)” and the Emax was not below 150%.

With `COc1cc(NC(=O)N2c3nc(-c4cccc(CC(O)CO)c4)ccc3N3CC[C@H]2C3)ncn1` (some centres unmarked) [Example 355], the “Tryp AVG EC1.5 (μM)” value is given as “B (EC1.5 1-25 μM)” and the Emax was not below 150%.

Take `O=C(Nc1ccc(F)cn1)N1c2nc(-c3cccc(CC(O)CO)c3)ccc2N2CC[C@H]1C2` (some centres unmarked) [Example 356]: the “Tryp AVG EC1.5 (μM)” value is listed as “A (EC1.5<1 μM)” and the Emax is not below 150%.

As for `O=C(Nc1ccncc1F)N1c2nc(-c3cccc(CC(O)CO)c3)ccc2N2CC[C@H]1C2` (some centres unmarked) [Example 357], the “Tryp AVG EC1.5 (μM)” value is “B (EC1.5 1-25 μM)” and the Emax is not below 150%.

Regarding `COc1cc(NC(=O)N2c3nc(-c4ccnc(F)c4)ccc3N3CC[C@H]2C3)ncn1` [Example 358], the “Tryp AVG EC1.5 (μM)” value is “C (EC1.5>25 μM)” and the Emax is less than 150%.

For `O=C(Nc1ccc(F)cn1)N1c2nc(N3CCCC(C(F)(F)F)C3)ccc2N2CCC[C@H]1C2` (some centres unmarked) [Example 359], the “Tryp AVG EC1.5 (μM)” value is “A (EC1.5<1 μM)” and the Emax was not below 150%.

As for `O=C(Nc1ccncc1)N1c2nc(N3CCCC(C(F)(F)F)C3)ccc2N2CCC[C@H]1C2` (some centres unmarked) [Example 360], the “Tryp AVG EC1.5 (μM)” value is “A (EC1.5<1 μM)” and the Emax is not below 150%.

On to `O=C(Nc1cc(O)ncn1)N1c2nc(N3CCCC(C(F)(F)F)C3)ccc2N2CCC[C@H]1C2` (some centres unmarked) [Example 361], for which the “Tryp AVG EC1.5 (μM)” value is “A (EC1.5<1 μM)” and the Emax is not below 150%.
